Measured values taken from patent publication US20150299250A1, “MACROCYCLIC COMPOUNDS AND USES THEREOF” (ADELAIDE RESEARCH & INNOVATION PTY LTD, priority 2012, published 2015).

Tests used:
[1] = test system: primary human embryonic fibroblasts; assay: Cell viability assay (7AAD, 48 hours), normal fibroblasts; format: cell-based; conditions: Fibroblast, 48 hours exposure, read-out: Normal cell lines IC50 (μM) Fibroblasts
Experimental: (§1) Cell viability assays were performed as previously described. Briefly, cells were seeded in 96 well microtiterplates at a density of 3×10^4 cells per well in the presence of the indicated chemical. Cells were harvested 48 hours post-treatment, centrifuged at 1,300×g, washed in phosphate-buffered saline (PBS) and stained with 7AAD solution (2 μg/mL) (7-amino-actinomycin-D, Invitrogen, Carlsbad, Calif.) for 10 mins at room temperature. Viable cells were determined with the use of a FACS Calibur flow cytometer (Becton Dickinson Immunocytometry Systems), and analyzed with the use of FLOWJO (Tree Star, Inc) and GraphPad Prism (GraphPad Software Inc).
(§2) WE-68 and VH-64 Ewing's sarcoma cells were kindly supplied by F. van Valen (Department of Orthopaedic Surgery, Westfalische-Wilhelms-University, Germany).TC-252 and STA-ET-1 Ewing's sarcoma cells were kindly provided by G. Hamilton (Department of Surgery, University of Vienna, Austria) or P. Ambros (Children's Cancer Research Institute, St Anna Children's Hospital, Vienna, Austria). Primary human embryonic fibroblasts or primary human osteoblasts were collected from the Women's and Children's Hospital (North Adelaide, South Australia, Australia) or Royal Adelaide Hospital with patient consent. Mouse Embryonic Fibroblasts (MEFs) and its p53-null derivative were kindly supplied by Guillermina Lozano (Department of Genetics, Anderson Cancer Centre, University of Texas, Houston, Tex., USA). WE-68 cell lines were grown in RPMI-1640 media, whilst human embryonic fibroblasts and MEFs were grown in Dulbecco's Modified Eagle's Medium (DMEM). Media was supplemented with 10% FCS, 1% PSG and 10 mM HEPES. All cells were maintained at 37° C. in a humidified atmosphere of 5% CO2.

[2] = test system: panel of sarcoma cell lines (WE-68, VH-64, STA-ET-1, TC-252); assay: Cell viability assay, panel of four sarcoma cell lines (average); format: cell-based; conditions: for IC50: average of four sarcoma cell lines, read-out: Average IC50 for cancer cell lines
Experimental: as §1, §2

[3] = test system: VH-64 Ewing's sarcoma cells; assay: Cell viability assay (7AAD, 48 hours), VH-64; format: cell-based; conditions: 48 hours exposure; read-out: Cancer cell lines IC50 (μM) VH-64
Experimental: as §1, §2

[4] = test system: WE-68 Ewing's sarcoma cells; assay: Cell viability assay (7AAD, 48 hours), WE-68; format: cell-based; conditions: 48 hours exposure; read-out: Cancer cell lines IC50 (μM) WE-68
Experimental: as §1, §2

[5] = test system: TC-252 Ewing's sarcoma cells; assay: Cell viability assay (7AAD, 48 hours), TC-252; format: cell-based; conditions: 48 hours exposure; read-out: Cancer cell lines IC50 (μM) TC-252
Experimental: as §1, §2

[6] = target: T1, 20S proteasome CP-L activity (Oryctolagus cuniculus, UniProt A0A5F9DQW2); assay: In vitro proteasome activity assay, CP-L (Z-nLPnLD-AMC); format: biochemical, rabbit; conditions: purified 20S proteasome; highest concentration tested 25,000 nM
T1 construct: Purified rabbit 20S proteasome
Experimental: We initially determined the ability of the novel tripeptide MG132 analogues 1-6 and the macrocycles 3a and 4a to inhibit the three separate protease activities of the 20S proteasome (CT-L, -T-L and CP-L). The assays were performed in vitro using purified 20S proteasome/inhibitor mixtures, with the activity of each subunit of the proteasome assessed upon incubation with its respective target peptide. […] In addition, there is no apparent clear-cut preference for the length of tether (compare compounds 1 to 4), while the introduction of an aryl group at P3 (as in 6) is well tolerated.
Purified rabbit 20S proteasome and fluorogenic CT-L substrate (Suc-LLVY-AMC) were purchased from Boston Biochem (Cambridge, Mass., USA). The T-L and CP-L fluorogenic substrates (Ac-RLR-AMC and Z-nLPnLD-AMC) were purchased from Enzo Life Sciences (Farmingdale, N.Y., USA). The 20S proteasome was diluted to 0.2 μg/μL in 20S proteasome buffer (50 mM HEPES pH 7.6, 150 mM NaCl and 1 mM DDT) and stored at −80° C. Purified 20S proteasome (8 ng) was pre-incubated with the indicated concentrations of inhibitors for 15 minutes and subsequently added to the AMC-labeled substrate peptide (50 μM) in assay buffer (25 mM HEPES, pH 7.5, 0.5 mM EDTA, 0.05% NP-40, and 0.001% SDS (w/v)) at 37° C. for 2 hours. Fluorescent substrate cleavage by the 20S proteasome was linear during this incubation timeframe (Supplementary Figure S4. Hydrolysed 7-amino-4-methylcoumarin (AMC) was subsequently detected with the FLUOstar OPTIMA microplatefluorometer at excitation/emission of 390/460 nm. The activity was estimated in relative fluorescence units and half of the maximal inhibitory activity of the proteasome is represented by IC50 values. A minimum of three biological replicates were performed for each data point.

[7] = test system: STA-ET-1 Ewing's sarcoma cells; assay: Cell viability assay (7AAD, 48 hours), STA-ET-1; format: cell-based; conditions: 48 hours exposure; read-out: Cancer cell lines IC50 (μM) STA-ET-1
Experimental: as §1, §2

[8] = test system: primary human osteoblasts; assay: Cell viability assay (7AAD, 48 hours), normal osteoblasts; format: cell-based; conditions: Osteoblast, 48 hours exposure, read-out: Normal cell lines IC50 (μM) Osteoblasts
Experimental: as §1, §2

[9] = test system: normal cell lines (fibroblasts, osteoblasts); assay: Cell viability assay, normal cell lines (average); format: cell-based; conditions: Homo sapiens; average of fibroblasts and osteoblasts
Experimental: as §1, §2

[10] = target: T2, 20S proteasome T-L activity (Oryctolagus cuniculus, UniProt G1SWK8); assay: In vitro proteasome activity assay, T-L (Ac-RLR-AMC); format: biochemical, rabbit; conditions: for IC50: purified 20S proteasome, highest concentration tested 25,000 nM
T2 construct: purchased Boston Biochem
T2 sequence (G1SWK8 1-271): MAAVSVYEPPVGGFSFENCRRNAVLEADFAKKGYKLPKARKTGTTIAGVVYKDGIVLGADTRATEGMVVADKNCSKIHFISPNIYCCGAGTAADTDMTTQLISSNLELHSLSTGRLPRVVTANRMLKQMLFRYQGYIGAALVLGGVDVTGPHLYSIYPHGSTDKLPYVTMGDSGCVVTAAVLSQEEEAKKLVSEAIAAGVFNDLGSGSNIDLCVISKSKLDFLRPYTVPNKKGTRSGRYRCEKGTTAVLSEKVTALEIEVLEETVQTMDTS
Experimental: (§3) The assays were performed in vitro using purified 20S proteasome/inhibitor mixtures, with the activity of each subunit of the proteasome assessed upon incubation with its respective target peptide.
(§4) Purified rabbit 20S proteasome and fluorogenic CT-L substrate (Suc-LLVY-AMC) were purchased from Boston Biochem (Cambridge, Mass., USA). The T-L and CP-L fluorogenic substrates (Ac-RLR-AMC and Z-nLPnLD-AMC) were purchased from Enzo Life Sciences (Farmingdale, N.Y., USA). The 20S proteasome was diluted to 0.2 μg/μL in 20S proteasome buffer (50 mM HEPES pH 7.6, 150 mM NaCl and 1 mM DDT) and stored at −80° C. Purified 20S proteasome (8 ng) was pre-incubated with the indicated concentrations of inhibitors for 15 minutes and subsequently added to the AMC-labeled substrate peptide (50 μM) in assay buffer (25 mM HEPES, pH 7.5, 0.5 mM EDTA, 0.05% NP-40, and 0.001% SDS (w/v)) at 37° C. for 2 hours.

[11] = target: bovine α-chymotrypsin (bCT) (Bos taurus, UniProt P00766); assay: Bovine chymotrypsin spectrophotometric assay (Suc-Ala-Ala-Pro-Phe-pNA); format: biochemical
Experimental: The activity of bCT was assayed spectrophotometrically with a Varian Cary 5000 UV-VIS-NIR spectrophotometer equipped with a thermostated multicell holder at 25.0±0.1° C. Assay buffer was: Tris-HCl (77 mM), CaCl2 (20 mM), pH 7.8 (pH optimum of α-chymotrypsin {3}). A solution of bCT (21.9 μg/mL) in aq HCl (1 mM) was prepared daily by a 1:40 dilution of a stock solution (874 μg/mL) in aq HCl (1 mM) and kept at 0° C. A 1:100 dilution in ice-cold aq HCl (1 mM) was prepared immediately before starting each measurement. Stock solutions of the substrate Suc-Ala-Ala-Pro-Phe-pNA (10 mM) and all inhibitors (5 mM) were freshly prepared in DMSO and stored at r.t. All compounds were analyzed at five different inhibitor concentrations, [I]. Progress curves were monitored at 405 nm over 6 min and characterized by a linear steady state turnover of the substrate.
The Inhibition studies were performed in the presence of 6% v/v DMSO in a volume of 1 mL containing 0.011 μg/mL bCT, different concentrations of Suc-Ala-Ala-Pro-Phe-pNA (10-100 μM) and inhibitor. Into a cuvette containing 890 μL assay buffer, 10 μL of substrate solution (1-10 mM), inhibitor stock, and DMSO were added to give a total volume of […]. After thoroughly mixing the contents of the cuvette, the enzymatic reaction was initiated by adding 50 μL of bCT solution. Uninhibited enzyme activity was determined by adding DMSO instead of inhibitor solution. Non-enzymatic hydrolysis of Suc-Ala-Ala-Pro-Phe-pNA was analyzed by adding DMSO and 1 mM aqueous HCl instead of inhibitor and enzyme solution, respectively, and found to be negligible. The rate of enzyme-catalyzed hydrolysis of 100 μM substrate was determined without inhibitor in each experiment and was set to 100%. Ki values of inhibitors were determined graphically according to Dixon {4} using mean values of percentage rates obtained in three separate experiments at two different substrate concentrations, [S].

[12] = target: T3, 20S proteasome chymotrypsin-like (CT-L) activity (Oryctolagus cuniculus, UniProt G1T4Q9); assay: In vitro proteasome activity assay, CT-L (Suc-LLVY-AMC); format: biochemical, rabbit; conditions: purified 20S proteasome
T3 sequence (G1T4Q9 1-263): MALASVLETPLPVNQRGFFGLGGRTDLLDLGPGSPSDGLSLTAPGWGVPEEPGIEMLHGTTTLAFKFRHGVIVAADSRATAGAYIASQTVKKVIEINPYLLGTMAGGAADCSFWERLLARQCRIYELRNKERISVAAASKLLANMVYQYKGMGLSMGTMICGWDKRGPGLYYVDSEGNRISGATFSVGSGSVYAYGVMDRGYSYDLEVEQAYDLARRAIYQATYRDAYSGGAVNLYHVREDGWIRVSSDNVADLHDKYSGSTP
Experimental: as §3, §4

T1 sequence (A0A5F9DQW2 1-212): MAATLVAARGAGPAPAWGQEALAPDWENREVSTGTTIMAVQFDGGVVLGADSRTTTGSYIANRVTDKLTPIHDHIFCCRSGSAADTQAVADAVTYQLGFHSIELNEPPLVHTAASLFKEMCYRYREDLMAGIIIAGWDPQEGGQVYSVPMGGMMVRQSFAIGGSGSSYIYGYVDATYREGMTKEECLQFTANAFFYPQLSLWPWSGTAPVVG

SMILES	IC50 [1] [µM]	IC50 [2] [nM]	IC50 [3] [µM]	IC50 [4] [µM]	IC50 [5] [µM]	IC50 [6] [nM]	IC50 [7] [µM]	IC50 [8] [µM]	IC50 [10] [nM]	Ki [11] [nM]	also measured
CC(C)C[C@H](NC(=O)[C@H](Cc1ccccc1)NC(=O)c1cnccn1)B(O)O [Bortezomib, reference compound]	0.02	20	0.04	0.02	0.01	438	< 0.0008	0.28	> 25000		Therapeutic window ([2]; fold change in potency (IC50) against cancer cell line versus normal cell line): ×9.1; IC50 [9]: 150 nM; activation of T-L activity [10]: ^fBortezomib activated T-L activity by 32%.
O=C[C@H](Cc1ccccc1)NC(=O)[C@@H]1CCCCCCCCCCCC(=O)c2ccc([nH]2)C(=O)N1 [Compound 1d, (S)-2,16-dioxo-N—((S)-1-oxo-3-phenylpropan-2-yl)-3,20-diazabicyclo[15.2.1]icosa-1(19),17-diene-4-carboxamide]										2520 ± 248	
O=CC(Cc1ccccc1)NC(=O)C1CCCCOc2ccc(cc2)CCC(=O)c2ccc([nH]2)C(=O)N1 (centres unmarked) [Compound 2d]										431 ± 5	
CC(C)CC(C=O)NC(=O)C1Cc2ccc(cc2)OCCCCOc2ccc(cc2)CCC(=O)c2ccc([nH]2)C(=O)N1 (centres unmarked) [Compound 3c]										1920 ± 167	
O=CC(Cc1ccccc1)NC(=O)C1Cc2ccc(cc2)OCCCCOc2ccc(cc2)CCC(=O)c2ccc([nH]2)C(=O)N1 (centres unmarked) [Compound 3d]										33 ± 5	
CC(C)CC1NC(=O)C(NC(=O)OCc2ccccc2)CCCCn2cc(nn2)COc2ccc(cc2)CC(C=O)NC1=O (centres unmarked) [Compound 4a]	> 50	31700	> 50	18	39.4	> 25000	37.6	> 50	> 25000		IC50 [12]: 250 nM
